According to ChEMBL document CHEMBL1201862, “PubChem BioAssay data set” (2004):
The source made the active and inactive calls.

Tests used:
[1] = biological target: G2/mitotic-specific cyclin-B1 (Homo sapiens, UniProt P14635); assay: G2/M cell cycle arrest in HeLa, late-stage follow-up, mechanism study for Wee1 degradation inhibitor project, FACS, panel member Cyclin B Degradation (AID 2088)
[2] = biological target: Wee1-like protein kinase (Homo sapiens, UniProt P30291); assay: G2/M cell cycle arrest in HeLa, late-stage follow-up, mechanism study for Wee1 degradation inhibitor project, FACS, panel member Wee1 Degradation (AID 2088)
Sequence of Wee1-like protein kinase (P30291 whole entry): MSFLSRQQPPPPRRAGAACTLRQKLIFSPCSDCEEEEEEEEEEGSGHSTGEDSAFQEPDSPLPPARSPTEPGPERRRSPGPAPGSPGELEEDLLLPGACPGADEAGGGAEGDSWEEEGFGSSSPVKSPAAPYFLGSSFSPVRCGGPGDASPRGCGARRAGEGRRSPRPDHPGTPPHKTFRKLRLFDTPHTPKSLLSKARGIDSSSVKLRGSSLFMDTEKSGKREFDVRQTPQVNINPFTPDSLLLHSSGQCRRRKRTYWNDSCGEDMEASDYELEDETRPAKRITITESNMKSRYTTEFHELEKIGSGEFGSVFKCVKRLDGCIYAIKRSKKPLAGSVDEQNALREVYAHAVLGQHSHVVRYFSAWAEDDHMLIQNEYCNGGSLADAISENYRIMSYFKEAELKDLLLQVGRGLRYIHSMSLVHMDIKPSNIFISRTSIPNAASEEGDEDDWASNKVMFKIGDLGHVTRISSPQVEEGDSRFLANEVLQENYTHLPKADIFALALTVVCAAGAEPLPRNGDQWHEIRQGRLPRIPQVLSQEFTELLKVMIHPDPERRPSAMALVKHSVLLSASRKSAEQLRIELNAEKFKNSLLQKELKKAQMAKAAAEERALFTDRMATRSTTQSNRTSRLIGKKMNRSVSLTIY

[3] = biological target: T1, Rac GTPase-activating protein 1 (Homo sapiens, UniProt Q9H0H5); assay: MgcRacGAP GTPase-activating activity inhibitors, confirmation, biochemical, ADP Hunter fluorescence, primary and confirmatory (AID 624330); format: functional
T1 sequence (Q9H0H5 whole entry): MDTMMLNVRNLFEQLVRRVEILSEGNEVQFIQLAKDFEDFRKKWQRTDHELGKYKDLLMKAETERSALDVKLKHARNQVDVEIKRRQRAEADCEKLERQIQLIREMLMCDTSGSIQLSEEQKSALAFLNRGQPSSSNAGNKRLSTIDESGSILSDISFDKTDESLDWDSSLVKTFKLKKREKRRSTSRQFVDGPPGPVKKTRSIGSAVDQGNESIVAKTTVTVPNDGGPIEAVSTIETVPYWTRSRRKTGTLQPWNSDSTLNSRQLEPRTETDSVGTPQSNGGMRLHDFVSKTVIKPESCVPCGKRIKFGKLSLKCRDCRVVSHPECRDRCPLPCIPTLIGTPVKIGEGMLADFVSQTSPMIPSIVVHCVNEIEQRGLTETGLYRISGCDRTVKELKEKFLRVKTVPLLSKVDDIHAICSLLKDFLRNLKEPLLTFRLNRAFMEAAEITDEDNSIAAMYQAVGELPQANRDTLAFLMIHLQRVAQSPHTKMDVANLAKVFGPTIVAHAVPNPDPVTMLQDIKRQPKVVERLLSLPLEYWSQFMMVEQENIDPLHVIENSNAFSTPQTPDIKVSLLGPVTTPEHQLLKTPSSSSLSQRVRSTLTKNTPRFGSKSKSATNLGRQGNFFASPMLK

[4] = biological target: Cyclin-dependent kinase 5/CDK5 activator 1 (Homo sapiens, UniProt Q00535); assay: CDK5/p35 kinase inhibitors, dose response, biochemical, cherry-picked samples, set 2 (AID 504545)
Sequence of Cyclin-dependent kinase 5/CDK5 activator 1 (Q00535 whole entry): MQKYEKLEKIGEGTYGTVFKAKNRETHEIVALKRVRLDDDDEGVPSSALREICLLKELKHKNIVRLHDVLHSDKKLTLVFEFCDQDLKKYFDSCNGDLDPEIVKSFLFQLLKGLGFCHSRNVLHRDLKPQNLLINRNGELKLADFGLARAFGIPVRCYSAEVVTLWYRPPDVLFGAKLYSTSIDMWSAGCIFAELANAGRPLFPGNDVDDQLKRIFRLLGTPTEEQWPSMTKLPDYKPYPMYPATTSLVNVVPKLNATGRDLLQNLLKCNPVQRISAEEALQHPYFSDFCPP
Sequence of Cyclin-dependent kinase 5/CDK5 activator 1 (Q15078 whole entry, further chain): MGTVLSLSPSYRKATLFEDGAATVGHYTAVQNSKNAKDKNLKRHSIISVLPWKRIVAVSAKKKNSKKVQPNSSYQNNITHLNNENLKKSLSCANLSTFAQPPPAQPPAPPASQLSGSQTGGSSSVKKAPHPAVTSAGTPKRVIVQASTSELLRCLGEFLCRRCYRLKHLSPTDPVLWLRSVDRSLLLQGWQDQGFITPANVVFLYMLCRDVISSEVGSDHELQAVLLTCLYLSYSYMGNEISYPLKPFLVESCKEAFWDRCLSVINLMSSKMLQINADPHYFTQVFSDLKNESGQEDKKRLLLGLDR

[5] = Luminescence Cell-Based Dose Confirmation to Identify Activators of 5'UTR Stem-Loop Driven Alpha-Synuclein mRNA Translation in H4 Neuroglioblastoma Cells. [Related pubchem assays: 1829 (Project Summary), 1814 (Primary HTS)]; format: functional
[6] = Luminescence Cell-Based Dose Response to Identify Activators of Luciferase Translation or Activity in H4-C Neuroglioblastoma Cells. [Related pubchem assays: 1829 (Project Summary), 1814 (Primary HTS)]; format: functional
[7] = system: H4; assay: Luminescence Cell-Based Dose Response HTS to Identify Activators of 5'UTR Stem-Loop Driven Prion Protein mRNA Translation in H4 Neuroglioblastoma Cells. [Related pubchem assays: 1829 (Project Summary), 1814 (Primary HTS)]; format: functional; conditions: Homo sapiens
[8] = biological target: FAD-linked sulfhydryl oxidase ALR (Homo sapiens, UniProt P55789); assay: inhibitors of human ALR sulfhydryl oxidase, dose response, biochemical, H2O2 detection, luminescence, cherry-pick (AID 493248)
Sequence of FAD-linked sulfhydryl oxidase ALR (P55789 whole entry): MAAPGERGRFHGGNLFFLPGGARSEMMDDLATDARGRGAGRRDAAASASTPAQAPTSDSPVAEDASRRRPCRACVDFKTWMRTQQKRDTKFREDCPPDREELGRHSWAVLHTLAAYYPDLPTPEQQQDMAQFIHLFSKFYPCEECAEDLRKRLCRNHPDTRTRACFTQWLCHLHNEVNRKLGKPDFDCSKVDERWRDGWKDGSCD

[9] = Luminescence Cell-Based Dose Response to Identify Activators of 5'UTR Stem-Loop Driven Prion Protein mRNA Translation in H4-C Neuroglioblastoma Cells. [Related pubchem assays: 1829 (Project Summary), 1814 (Primary HTS)]; format: functional
[10] = Luminescence Cell-Based Dose Response HTS to Identify Activators of Luciferase Translation or Activity in H4 […] Cells. [Related pubchem assays: 1829 (Project Summary), 1814 (Primary HTS)]; format: functional
[11] = biological target: Paired box protein Pax-8 (Homo sapiens, UniProt Q06710); assay: inhibitors of PAX8-driven TPO luciferase reporter, dose response, RMG-I cells, cherry-pick (AID 687027); format: functional, cell-based;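 also: luciferase reporter driven by Pax8 target thyroperoxidase promoter measured by SteadyGlo luminescence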
Sequence of Paired box protein Pax-8 (Q06710 whole entry): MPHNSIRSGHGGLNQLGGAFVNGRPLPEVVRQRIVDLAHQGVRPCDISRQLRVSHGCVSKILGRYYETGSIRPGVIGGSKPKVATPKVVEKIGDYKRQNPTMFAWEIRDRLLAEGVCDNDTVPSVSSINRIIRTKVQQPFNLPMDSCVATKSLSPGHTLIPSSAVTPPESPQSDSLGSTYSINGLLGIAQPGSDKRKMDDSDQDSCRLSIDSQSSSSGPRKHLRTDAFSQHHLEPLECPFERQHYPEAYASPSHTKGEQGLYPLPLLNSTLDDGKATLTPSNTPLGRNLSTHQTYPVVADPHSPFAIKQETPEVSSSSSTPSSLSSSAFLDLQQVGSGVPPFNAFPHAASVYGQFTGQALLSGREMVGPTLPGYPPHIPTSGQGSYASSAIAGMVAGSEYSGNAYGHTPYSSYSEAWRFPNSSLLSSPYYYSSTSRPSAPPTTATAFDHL

[12] = biological target: Neurotensin receptor type 1 (Homo sapiens, UniProt P30989); format: functional;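 also: Image-based confirmatory dose-response assay measuring agonist activity at NTR1; NTR1-expressing U2OS osteosarcoma cells imaged for beta-arrestin GFP spot formation; agonist potency where compounds increase beta-arrestin recruitment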
Sequence of Neurotensin receptor type 1 (P30989 whole entry): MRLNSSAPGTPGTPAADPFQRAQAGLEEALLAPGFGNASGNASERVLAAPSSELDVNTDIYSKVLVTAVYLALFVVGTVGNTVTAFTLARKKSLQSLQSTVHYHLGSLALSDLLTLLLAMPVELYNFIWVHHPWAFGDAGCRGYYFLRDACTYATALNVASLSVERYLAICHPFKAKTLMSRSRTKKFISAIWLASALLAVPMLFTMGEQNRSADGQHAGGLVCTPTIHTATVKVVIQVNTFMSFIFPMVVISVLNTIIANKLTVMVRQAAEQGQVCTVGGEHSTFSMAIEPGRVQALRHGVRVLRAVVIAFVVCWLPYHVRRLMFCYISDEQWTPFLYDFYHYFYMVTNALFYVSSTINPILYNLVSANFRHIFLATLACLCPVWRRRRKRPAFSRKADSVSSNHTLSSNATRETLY

[13] = system: Vero; assay: host cell cytotoxicity of antiviral hits, dose response, cytotoxicity control for West Nile virus antiviral project, secondary assay (AID 1650); format: functional; conditions: Chlorocebus sabaeus
[14] = biological target: T2, Short transient receptor potential channel 4 (Mus musculus, UniProt Q9QUQ5); assay: mouse TRPC4 channel activators, dose response, cell-based, HEK293 TRPC4/mu-opioid, Fluo-4 calcium (AID 434937); format: functional
T2 sequence (Q9QUQ5 whole entry): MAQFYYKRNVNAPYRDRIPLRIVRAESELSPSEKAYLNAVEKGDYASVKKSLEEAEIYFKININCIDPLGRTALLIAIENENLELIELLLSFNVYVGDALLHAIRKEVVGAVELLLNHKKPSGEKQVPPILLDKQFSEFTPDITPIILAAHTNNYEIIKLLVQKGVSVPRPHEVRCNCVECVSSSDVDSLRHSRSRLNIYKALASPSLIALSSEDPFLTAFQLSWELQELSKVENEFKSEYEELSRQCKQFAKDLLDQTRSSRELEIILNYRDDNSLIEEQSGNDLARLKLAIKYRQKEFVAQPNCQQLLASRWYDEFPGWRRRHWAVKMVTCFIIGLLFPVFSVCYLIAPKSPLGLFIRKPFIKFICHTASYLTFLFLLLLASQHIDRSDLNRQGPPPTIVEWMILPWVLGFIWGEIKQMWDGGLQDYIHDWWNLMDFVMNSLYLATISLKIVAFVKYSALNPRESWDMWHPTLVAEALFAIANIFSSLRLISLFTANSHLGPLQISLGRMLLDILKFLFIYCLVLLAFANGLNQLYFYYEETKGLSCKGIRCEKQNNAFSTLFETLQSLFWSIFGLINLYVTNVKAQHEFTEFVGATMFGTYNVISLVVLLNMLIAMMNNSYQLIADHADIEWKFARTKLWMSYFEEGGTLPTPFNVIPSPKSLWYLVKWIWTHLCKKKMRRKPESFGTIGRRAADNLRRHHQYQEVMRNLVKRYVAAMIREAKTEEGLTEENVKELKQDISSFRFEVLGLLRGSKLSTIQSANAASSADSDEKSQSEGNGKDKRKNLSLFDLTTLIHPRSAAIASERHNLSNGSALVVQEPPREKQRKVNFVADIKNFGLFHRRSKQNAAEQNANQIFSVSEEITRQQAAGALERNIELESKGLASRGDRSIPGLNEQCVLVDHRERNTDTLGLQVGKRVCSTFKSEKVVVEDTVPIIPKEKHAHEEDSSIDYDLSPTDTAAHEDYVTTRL

[15] = non-specific cell cytotoxicity, dose response, cytotoxicity control for PAX8 inhibitor project, plate reader, dry powder samples (AID 743021); format: functional, cell-based
[16] = system: Vero; assay: West Nile virus antiviral activity, cell-based, CPE readout (AID 1621); format: functional; conditions: Chlorocebus sabaeus
[17] = Shn3 3'UTR reporter inhibitors, dose response, cell-based, Clone20 osteoblasts, firefly luciferase, cherry-picked (AID 624132); format: functional;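 also: firefly luciferase luminescence from reporter carrying the Shn3 3'UTR in osteoblasts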
[18] = control 3'UTR Renilla luciferase suppression, dose response, counter-screen for Shn3 inhibitor project, cell-based, Clone20-Shn3RL, cherry-picked (AID 624133); format: functional
[19] = system: INS1; assay: beta cell apoptosis inhibitors, cytokine rescue, dose response, luminescence, retest (AID 449756); format: functional, cell-based; conditions: Rattus norvegicus;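 also: cell death triggered by IL-1 beta plus TNF-alpha plus IFN-gamma mixture; protective hits raise ATP signal compared with cytokine alone wells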
[20] = biological target: Transitional endoplasmic reticulum ATPase (Homo sapiens, UniProt P55072); assay: p97 ATPase inhibitors, dose response, biochemical (AID 1534)
Sequence of Transitional endoplasmic reticulum ATPase (Homo sapiens, UniProt P55072) (P55072 whole entry): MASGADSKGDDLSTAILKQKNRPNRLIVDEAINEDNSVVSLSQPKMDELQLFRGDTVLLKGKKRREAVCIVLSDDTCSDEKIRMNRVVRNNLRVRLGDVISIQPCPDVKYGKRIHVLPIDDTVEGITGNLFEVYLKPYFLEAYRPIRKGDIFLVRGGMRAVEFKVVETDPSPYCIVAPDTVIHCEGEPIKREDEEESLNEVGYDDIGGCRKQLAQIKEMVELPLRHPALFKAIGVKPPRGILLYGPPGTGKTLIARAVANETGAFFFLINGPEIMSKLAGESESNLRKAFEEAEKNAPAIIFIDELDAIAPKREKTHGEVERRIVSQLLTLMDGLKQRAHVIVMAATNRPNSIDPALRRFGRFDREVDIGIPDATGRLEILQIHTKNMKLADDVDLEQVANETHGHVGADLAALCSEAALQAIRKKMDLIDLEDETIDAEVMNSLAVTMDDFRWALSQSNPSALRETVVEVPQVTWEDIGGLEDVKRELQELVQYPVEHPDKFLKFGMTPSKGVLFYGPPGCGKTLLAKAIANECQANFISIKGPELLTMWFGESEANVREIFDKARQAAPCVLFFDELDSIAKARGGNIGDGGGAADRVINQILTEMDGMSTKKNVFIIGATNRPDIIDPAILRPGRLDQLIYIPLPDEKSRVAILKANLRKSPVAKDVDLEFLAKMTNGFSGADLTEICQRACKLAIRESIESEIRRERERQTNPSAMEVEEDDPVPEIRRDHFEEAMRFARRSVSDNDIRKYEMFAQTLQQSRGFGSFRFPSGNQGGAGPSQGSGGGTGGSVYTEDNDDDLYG

[21] = biological target: Transitional endoplasmic reticulum ATPase (Homo sapiens, UniProt P55072, C522A); assay: C522A mutant p97 ATPase inhibitors, dose response, counter-screen for p97 inhibitor project, biochemical, luminescence (AID 1544)
Sequence of Transitional endoplasmic reticulum ATPase (Homo sapiens, UniProt P55072, C522A) (P55072 2-806 C522A limits assumed): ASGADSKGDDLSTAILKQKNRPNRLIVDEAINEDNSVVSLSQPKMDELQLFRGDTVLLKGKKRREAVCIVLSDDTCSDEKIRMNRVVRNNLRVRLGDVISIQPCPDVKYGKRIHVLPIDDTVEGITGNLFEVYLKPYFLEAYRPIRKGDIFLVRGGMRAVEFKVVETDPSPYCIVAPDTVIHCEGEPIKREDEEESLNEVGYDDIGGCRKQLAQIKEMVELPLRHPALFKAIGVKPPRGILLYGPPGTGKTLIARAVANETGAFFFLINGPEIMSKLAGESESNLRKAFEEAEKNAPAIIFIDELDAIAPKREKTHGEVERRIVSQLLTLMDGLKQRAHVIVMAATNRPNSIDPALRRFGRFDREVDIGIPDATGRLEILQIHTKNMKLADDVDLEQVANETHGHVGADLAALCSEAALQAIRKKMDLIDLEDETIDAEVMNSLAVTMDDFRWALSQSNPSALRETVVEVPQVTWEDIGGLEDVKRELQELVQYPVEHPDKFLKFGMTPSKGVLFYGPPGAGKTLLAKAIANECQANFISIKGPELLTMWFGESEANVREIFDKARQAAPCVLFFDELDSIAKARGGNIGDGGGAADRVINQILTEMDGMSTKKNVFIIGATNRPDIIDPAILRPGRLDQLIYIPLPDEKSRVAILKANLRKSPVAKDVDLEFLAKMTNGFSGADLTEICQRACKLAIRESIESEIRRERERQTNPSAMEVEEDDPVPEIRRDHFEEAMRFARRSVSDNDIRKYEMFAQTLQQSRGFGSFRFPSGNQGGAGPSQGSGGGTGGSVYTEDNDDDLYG

[22] = system: Salmon testes DNA; assay: DNA intercalators displacing acridine orange, dose response, artefact control for KSHV LANA DNA-binding inhibitor project, biochemical, fluorescence polarization, cherry-picked samples, set 2 (AID 504727); parameters: species or system Salmonidae
[23] = A cytotoxicity screen of small molecule inhibitors of the PhoP region in Salmonella typhi identified in the primary screen. [Related pubchem assays: 1850, 1864, 1985 ]; format: functional
[24] = biological target: T3, Histone-lysine N-methyltransferase NSD2 (Homo sapiens, UniProt O96028); format: biochemical
T3 sequence (O96028 whole entry): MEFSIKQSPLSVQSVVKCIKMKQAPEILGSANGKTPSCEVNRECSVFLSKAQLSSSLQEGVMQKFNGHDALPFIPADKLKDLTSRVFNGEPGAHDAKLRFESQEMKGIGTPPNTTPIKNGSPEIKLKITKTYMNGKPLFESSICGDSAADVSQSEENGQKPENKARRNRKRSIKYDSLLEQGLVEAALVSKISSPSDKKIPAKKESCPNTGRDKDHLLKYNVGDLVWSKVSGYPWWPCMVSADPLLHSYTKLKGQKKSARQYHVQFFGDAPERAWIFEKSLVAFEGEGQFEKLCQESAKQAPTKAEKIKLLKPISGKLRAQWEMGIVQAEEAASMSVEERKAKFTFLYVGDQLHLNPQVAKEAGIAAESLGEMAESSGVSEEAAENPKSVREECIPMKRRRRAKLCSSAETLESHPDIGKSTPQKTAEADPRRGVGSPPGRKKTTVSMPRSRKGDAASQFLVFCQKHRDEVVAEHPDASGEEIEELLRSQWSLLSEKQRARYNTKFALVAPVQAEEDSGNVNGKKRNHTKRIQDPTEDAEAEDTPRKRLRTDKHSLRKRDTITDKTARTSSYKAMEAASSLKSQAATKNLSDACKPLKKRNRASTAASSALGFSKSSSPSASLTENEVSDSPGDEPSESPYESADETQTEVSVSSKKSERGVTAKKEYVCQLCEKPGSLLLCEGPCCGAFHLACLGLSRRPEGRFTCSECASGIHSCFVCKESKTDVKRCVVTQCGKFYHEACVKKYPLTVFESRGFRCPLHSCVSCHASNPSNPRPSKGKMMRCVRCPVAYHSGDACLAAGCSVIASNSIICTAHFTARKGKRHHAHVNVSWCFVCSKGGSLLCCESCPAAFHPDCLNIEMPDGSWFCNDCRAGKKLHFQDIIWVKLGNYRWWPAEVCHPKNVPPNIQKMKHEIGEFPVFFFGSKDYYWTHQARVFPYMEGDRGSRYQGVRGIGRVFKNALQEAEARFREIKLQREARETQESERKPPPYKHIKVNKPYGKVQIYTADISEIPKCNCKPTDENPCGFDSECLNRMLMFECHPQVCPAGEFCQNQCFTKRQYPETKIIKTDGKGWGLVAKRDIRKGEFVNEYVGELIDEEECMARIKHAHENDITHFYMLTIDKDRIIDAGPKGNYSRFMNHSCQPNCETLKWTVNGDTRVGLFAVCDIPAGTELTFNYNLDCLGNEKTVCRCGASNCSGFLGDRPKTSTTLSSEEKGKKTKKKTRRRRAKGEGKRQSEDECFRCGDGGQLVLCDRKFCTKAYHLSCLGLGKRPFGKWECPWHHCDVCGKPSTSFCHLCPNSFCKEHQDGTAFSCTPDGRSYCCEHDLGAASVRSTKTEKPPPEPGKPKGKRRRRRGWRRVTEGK

[25] = biological target: NS3 (Hepatitis C virus, UniProt A3EZJ3); assay: PubChem AID 2173; parameters: species or system Hepacivirus hominis
Sequence of NS3 (A3EZJ3 whole entry): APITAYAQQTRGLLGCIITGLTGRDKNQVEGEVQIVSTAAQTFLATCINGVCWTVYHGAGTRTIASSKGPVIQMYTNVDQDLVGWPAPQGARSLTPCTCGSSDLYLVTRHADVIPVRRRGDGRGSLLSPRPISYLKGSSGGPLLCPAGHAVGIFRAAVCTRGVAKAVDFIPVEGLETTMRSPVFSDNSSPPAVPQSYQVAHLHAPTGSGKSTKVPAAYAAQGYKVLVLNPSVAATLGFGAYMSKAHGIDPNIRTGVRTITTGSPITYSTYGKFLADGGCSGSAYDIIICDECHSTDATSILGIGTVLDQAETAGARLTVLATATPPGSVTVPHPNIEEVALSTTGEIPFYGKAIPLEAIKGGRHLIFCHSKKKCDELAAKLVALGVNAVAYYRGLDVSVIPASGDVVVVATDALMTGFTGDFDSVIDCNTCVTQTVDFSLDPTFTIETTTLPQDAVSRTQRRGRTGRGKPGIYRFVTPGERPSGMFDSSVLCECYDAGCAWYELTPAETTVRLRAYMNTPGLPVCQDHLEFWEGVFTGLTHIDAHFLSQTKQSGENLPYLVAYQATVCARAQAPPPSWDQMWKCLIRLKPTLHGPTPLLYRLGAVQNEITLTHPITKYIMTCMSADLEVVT

[26] = system: HeLa; assay: HeLa cell cytotoxicity, dose response, cytotoxicity control, 24 h, cherry-picked samples (AID 504726); format: functional, cell-based; conditions: Homo sapiens;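 also: potency for cytotoxicity as loss of luminescence signal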
[27] = biological target: T4, Protein RecA (Mycobacterium tuberculosis, UniProt P9WHJ3); assay: Fluorescence Cell-Free Homogeneous Dose Retest to Identify Inhibitors of RecA-Intein Splicing Activity. [Related pubchem assays (depositor defined):AID2097, AID2223, AID489010, AID492950]; format: functional
T4 sequence (P9WHJ3 whole entry): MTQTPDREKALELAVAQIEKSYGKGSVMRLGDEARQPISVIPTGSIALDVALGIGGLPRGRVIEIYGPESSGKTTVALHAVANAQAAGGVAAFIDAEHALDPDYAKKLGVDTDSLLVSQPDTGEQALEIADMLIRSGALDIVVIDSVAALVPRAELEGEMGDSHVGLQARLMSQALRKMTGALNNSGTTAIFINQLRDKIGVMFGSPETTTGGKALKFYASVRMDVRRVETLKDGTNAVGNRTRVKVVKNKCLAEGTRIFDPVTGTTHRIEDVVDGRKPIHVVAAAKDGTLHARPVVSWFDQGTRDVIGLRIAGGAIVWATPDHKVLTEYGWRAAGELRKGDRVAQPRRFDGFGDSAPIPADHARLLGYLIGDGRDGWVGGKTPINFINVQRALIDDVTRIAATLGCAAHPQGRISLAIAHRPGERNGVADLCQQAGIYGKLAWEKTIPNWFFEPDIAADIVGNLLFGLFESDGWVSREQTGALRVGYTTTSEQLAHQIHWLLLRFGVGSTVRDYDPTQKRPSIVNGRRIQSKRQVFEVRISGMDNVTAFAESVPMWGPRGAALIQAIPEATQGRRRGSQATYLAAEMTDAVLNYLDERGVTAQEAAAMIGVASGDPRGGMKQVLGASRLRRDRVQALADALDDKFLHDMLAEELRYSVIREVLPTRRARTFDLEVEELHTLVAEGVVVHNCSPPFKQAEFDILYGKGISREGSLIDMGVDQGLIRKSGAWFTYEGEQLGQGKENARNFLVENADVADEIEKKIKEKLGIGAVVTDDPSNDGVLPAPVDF

Sequence of G2/mitotic-specific cyclin-B1 (P14635 whole entry): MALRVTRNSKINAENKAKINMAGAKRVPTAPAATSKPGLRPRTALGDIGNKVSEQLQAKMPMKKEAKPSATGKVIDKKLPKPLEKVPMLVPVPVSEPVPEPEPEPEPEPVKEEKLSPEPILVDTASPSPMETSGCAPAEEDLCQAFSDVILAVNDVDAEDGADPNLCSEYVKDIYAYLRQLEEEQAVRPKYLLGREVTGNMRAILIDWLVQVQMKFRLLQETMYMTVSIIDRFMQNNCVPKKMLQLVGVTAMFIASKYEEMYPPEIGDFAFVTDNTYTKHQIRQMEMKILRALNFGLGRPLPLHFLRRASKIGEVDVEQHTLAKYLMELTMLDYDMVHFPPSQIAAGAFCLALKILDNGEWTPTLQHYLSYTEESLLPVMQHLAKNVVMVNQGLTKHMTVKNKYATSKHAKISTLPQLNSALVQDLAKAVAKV

Cc1cc(O)nc(-n2nc(C)cc2NC(=O)c2ccc(Br)cc2)n1
inactive: EC50 [1] > 49.7 µM | EC50 [2] > 49.7 µM

Oc1ccc(/C=N/Nc2ccc(C(F)(F)F)cn2)cc1
active: IC50 [3] 28.9 µM | AC50 [4] 19.9 µM | EC50 [5] 0.35 µM | EC50 [6] 0.329 µM | AC50 [8] 37.5 µM | EC50 [9] 0.998 µM
inconclusive: EC50 [10] < 0.1 µM
> 120 µM (not active): EC50 [7]

CC[C@@H](C(=O)[C@@H](C)[C@@H](O)[C@H](C)CCc1ccc(C)c(O)c1C(=O)O)[C@H]1O[C@](CC)([C@H]2CC[C@](O)(CC)[C@H](C)O2)C[C@@H]1C [LASALOCID A SODIUM]
inactive: EC50 [12] 30.5 µM
active: AC50 [11] 3.52 µM | CC50 [13] 19.4 µM | EC50 [14] 5.96 µM | AC50 [15] 40.7 µM | IC50 [16] 8.3 µM | AC50 [17] 7.93 µM | AC50 [18] 8.23 µM | AC50 [19] 2.64 µM

CCCCn1c(NS(=O)(=O)c2ccc(C)cc2)c(S(=O)(=O)c2ccccc2)c2nc3ccccc3nc21
inconclusive: EC50 [27] > 380 µM
> 50 µM (not active): IC50 [20] | IC50 [21]
active: AC50 [22] 43.7 µM | EC50 [23] > 50 µM | AC50 [24] 12.2 µM | IC50 [25] 0.662 µM | AC50 [26] 313 µM
